Among the data in article PMC4534193, “Binding of the Lactococcal Drug Dependent Transcriptional Regulator LmrR to Its Ligands and Responsive Promoter Regions” (PLoS ONE, 2015) are Kd values, retold here.

SMILES strings stand for the structures.

In the test the target is T1, LmrR (Lactococcus cremoris, UniProt A2RI36).
T1 construct: gene llmg_0323; LmrR homodimer; untagged protein for the crystal (residues 1–5, 70–75 and 109–116 not modelled)
T1 sequence (A2RI36 1-116): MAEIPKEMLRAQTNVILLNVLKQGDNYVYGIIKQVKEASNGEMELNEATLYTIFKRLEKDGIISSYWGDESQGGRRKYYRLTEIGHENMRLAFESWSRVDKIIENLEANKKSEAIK
The test can be described thus: co-crystal structure ([…] Å) and riboflavin fluorescence quenching titration. The format is binding.

As for `Cc1cc2nc3c(=O)[nH]c(=O)nc-3n(C[C@H](O)[C@H](O)[C@H](O)CO)c2cc1C` [RBF, riboflavin], the Kd was 260 ± 80 nM.
